Measurements as given in patent US20240158446A1, “CYCLIC COMPOUND HAVING SELECTIVE INHIBITORY ACTION ON KRAS OVER HRAS AND NRAS” (CHUGAI SEIYAKU KABUSHIKI KAISHA, priority 2021, published 2024).
Read-outs that look alike come from different tables or passages of the source. Where a SMILES comes first, the peptide text is derived from it. Bridges are numbered along the chain shown (N, C = ends). [ ]: non-standard residue; d: D form. The star is where a group is joined. hPhe(3,5-F2-4-CF3) = N[C@@H](CCc1cc(F)c(C(F)(F)F)c(F)c1)C(=O)O; hPhe(3-Cl-4-CF3) = N[C@@H](CCc1ccc(C(F)(F)F)c(Cl)c1)C(=O)O; NPrPhe(4-CF3) = CCCN[C@@H](Cc1ccc(C(F)(F)F)cc1)C(=O)O; NEtPhe(4-Me) = CCN[C@@H](Cc1ccc(C)cc1)C(=O)O; NEtPhe(4-F) = CCN[C@@H](Cc1ccc(F)cc1)C(=O)O; NMeGly(cPent) = CN[C@H](C(=O)O)C1CCCC1; Pro(4,4-F2) = O=C(O)[C@@H]1CC(F)(F)CN1; Ac4c(3,3-F2) = NC1(C(=O)O)CC(F)(F)C1; NMeD = CN[C@@H](CC(=O)O)C(=O)O; NMeL = CN[C@@H](CC(C)C)C(=O)O; Morpholide = C1CN(*)CCO1; NMeA = CN[C@@H](C)C(=O)O; Ac5c = NC1(C(=O)O)CCCC1; Aze = O=C(O)[C@@H]1CCN1; NEtG = CCNCC(=O)O; Sar = CNCC(=O)O

How the values were obtained:
[1] = target: GDP-bound KRAS wild-type protein (Homo sapiens, UniProt P01116); assay: Binding to KRAS by surface plasmon resonance (SPR), Single Cycle Kinetics; conditions: GDP-bound KRAS wild-type protein, read-out: KRAS KD
Chain of GDP-bound KRAS wild-type protein (P01116 whole entry): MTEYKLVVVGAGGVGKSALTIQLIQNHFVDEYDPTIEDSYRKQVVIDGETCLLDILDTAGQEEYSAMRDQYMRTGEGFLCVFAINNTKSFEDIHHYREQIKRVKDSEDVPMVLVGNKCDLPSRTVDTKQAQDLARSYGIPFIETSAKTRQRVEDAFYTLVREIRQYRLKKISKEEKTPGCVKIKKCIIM

[2] = target: GDP-bound NRAS wild-type protein (Homo sapiens, UniProt P01111); assay: Binding to NRAS by surface plasmon resonance (SPR), Single Cycle Kinetics; conditions: for NRAS/KRAS (ratio of KD value for NRAS to KD value for KRAS) / NRAS/KRAS (ratio of KD value with respect to NRAS to KD value with respect to KRAS): SPR, GDP-bound NRAS wild-type protein vs GDP-bound KRAS wild-type protein
Chain of GDP-bound NRAS wild-type protein (P01111 whole entry): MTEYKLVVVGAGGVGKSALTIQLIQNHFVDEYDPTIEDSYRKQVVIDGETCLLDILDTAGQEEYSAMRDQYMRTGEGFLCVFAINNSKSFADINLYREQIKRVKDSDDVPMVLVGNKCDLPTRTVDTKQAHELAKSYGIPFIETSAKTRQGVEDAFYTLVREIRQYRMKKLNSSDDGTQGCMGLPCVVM

[3] = target: GDP-bound HRAS wild-type protein (Homo sapiens, UniProt P01112); assay: Binding to HRAS by surface plasmon resonance (SPR), Single Cycle Kinetics; conditions: for HRAS/KRAS (ratio of KD value for HRAS to KD value for KRAS) / HRAS/KRAS (ratio of KD value with respect to HRAS to KD value with respect to KRAS): SPR, GDP-bound HRAS wild-type protein vs GDP-bound KRAS wild-type protein
Chain of GDP-bound HRAS wild-type protein (P01112 whole entry): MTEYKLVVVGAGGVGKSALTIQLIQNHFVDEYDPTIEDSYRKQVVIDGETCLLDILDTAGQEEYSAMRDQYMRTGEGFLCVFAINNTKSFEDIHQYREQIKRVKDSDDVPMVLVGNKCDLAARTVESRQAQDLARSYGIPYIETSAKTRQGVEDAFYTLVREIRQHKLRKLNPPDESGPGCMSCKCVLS

[4] = SPR, Single Cycle Kinetics, 1:1 binding model
[5] = SPR Single Cycle Kinetics, 1:1 binding model

SMILES	Kd [1, 5]	NRAS/KRAS (ratio of KD value for NRAS to KD value for KRAS) [2]	HRAS/KRAS (ratio of KD value for HRAS to KD value for KRAS) [3]	further results
CCO[C@@H]1C[C@H]2C(=O)NC3(CC(C)(C)C3)C(=O)N(C)[C@@H](C3CCCC3)C(=O)N(C)[C@H](C(=O)N(C)CC)CC(=O)N(C)[C@@H](CC)C(=O)N[C@@H]([C@@H](C)CC)C(=O)N(C)CC(=O)N(C)[C@H]3C/C=C\CCN(C3=O)[C@@H](Cc3ccc(C(F)(F)F)cc3)C(=O)N(C)CC(=O)N[C@@H](CCc3cc(F)c(C(F)(F)F)c(F)c3)C(=O)N2C1 [PP1579]				Kd [1, 4]: 0.087 nM; NRAS/KRAS (ratio of KD value for NRAS to KD value for KRAS) ([2]; KD ratio class): A (a compound having 10 or more and less than 20 is denoted as A); HRAS/KRAS (ratio of KD value for HRAS to KD value for KRAS) ([3]; KD ratio class): B (a compound having 3 or more and less than 10 is denoted as B)
CC[C@H](C)[C@@H]1NC(=O)[C@H](CC(C)C)N(C)C(=O)C[C@@H](C(=O)N2CCOCC2)N(C)C(=O)[C@H](C2CCCC2)N(C)C(=O)C2(CCCC2)NC(=O)[C@@H]2CCCN2C(=O)[C@H](CCc2ccc(C(F)(F)F)c(Cl)c2)NC(=O)CN(C)C(=O)[C@H](Cc2ccc(F)cc2)N(CC)C(=O)[C@@H]2CCN2C(=O)[C@H](C)N(C)C1=O [PP0218] ([NMeL]I[NMeA][Aze][NEtPhe(4-F)][Sar][hPhe(3-Cl-4-CF3)]P[Ac5c][NMeGly(cPent)][NMeD]-Morpholide; lactam N-11)	0.2 nM	C (A compound having a KD ratio of 0.1 or more and less than 3 is denoted as C)	C (A compound having a KD ratio of 0.1 or more and less than 3 is denoted as C)	
CC[C@H](C)[C@@H]1NC(=O)[C@H](CC(C)C)N(C)C(=O)C[C@@H](C(=O)N2CCOCC2)N(C)C(=O)[C@H](C2CCCC2)N(C)C(=O)C2(CCCC2)NC(=O)[C@@H]2CCCN2C(=O)[C@H](CCc2ccc(C(F)(F)F)c(Cl)c2)NC(=O)CN(C)C(=O)[C@H](Cc2ccc(C)cc2)N(CC)C(=O)CN(C)C(=O)CN(C)C1=O [PP0022] ([NMeL]I[Sar][Sar][NEtPhe(4-Me)][Sar][hPhe(3-Cl-4-CF3)]P[Ac5c][NMeGly(cPent)][NMeD]-Morpholide; lactam N-11)	0.18 nM	B (a compound having 3 or more and less than 10 is denoted as B)	C (A compound having a KD ratio of 0.1 or more and less than 3 is denoted as C)	
CCO[C@@H]1C[C@H]2C(=O)NC3(CC(C)(C)C3)C(=O)N(C)[C@@H](C3CCCC3)C(=O)N(C)[C@H](C(=O)N(C)CC)CC(=O)N(C)[C@H]3CCCCCc4ccc(cc4)C[C@@H](C(=O)N(C)CC(=O)N[C@@H](CCc4ccc(C(F)(F)F)c(OC)c4)C(=O)N2C1)N1CC/C=C\C[C@@H](C1=O)N(C)C(=O)CN(C)C(=O)[C@H]([C@@H](C)CC)NC3=O [PP2259]		A (a compound having 10 or more and less than 20 is denoted as A)	B (a compound having 3 or more and less than 10 is denoted as B)	Kd ([1]; SPR, Single Cycle Kinetics): 0.12 nM
CCCN1C(=O)CN(C)C(=O)CN(C)C(=O)[C@H]([C@@H](C)CC)NC(=O)[C@H](CC(C)C)N(C)C(=O)C[C@@H](C(=O)N(C)C)N(C)C(=O)[C@H](C2CCCC2)N(C)C(=O)C2(CC(F)(F)C2)NC(=O)[C@@H]2CCCN2C(=O)[C@H](CCc2cc(F)c(C(F)(F)F)c(F)c2)NC(=O)CN(C)C(=O)[C@@H]1Cc1ccc(C(F)(F)F)cc1 [PP0745] ([NMeL]I[Sar][Sar][NPrPhe(4-CF3)][Sar][hPhe(3,5-F2-4-CF3)]P[Ac4c(3,3-F2)][NMeGly(cPent)][NMeD]-NMe2; lactam N-11)	0.029 nM			NRAS/KRAS (ratio of KD value with respect to NRAS to KD value with respect to KRAS) [2]: B (a compound having 3 or more and less than 10 is denoted as B); HRAS/KRAS (ratio of KD value with respect to HRAS to KD value with respect to KRAS) [3]: C (A compound having a KD ratio of 0.1 or more and less than 3 is denoted as C)
CCCN1C(=O)[C@@H]2CCN2C(=O)[C@H](C)N(C)C(=O)[C@H]([C@@H](C)CC)NC(=O)[C@H](CC(C)C)N(C)C(=O)C[C@@H](C(=O)N2CCOCC2)N(C)C(=O)[C@H](C2CCCC2)N(C)C(=O)C2(CCCC2)NC(=O)[C@H](C)NC(=O)[C@H](CCc2ccc(C(F)(F)F)c(Cl)c2)NC(=O)CN(C)C(=O)[C@@H]1Cc1ccc(C(F)(F)F)cc1 [PP0153] ([NMeL]I[NMeA][Aze][NPrPhe(4-CF3)][Sar][hPhe(3-Cl-4-CF3)]A[Ac5c][NMeGly(cPent)][NMeD]-Morpholide; lactam N-11)	0.33 nM	C (A compound having a KD ratio of 0.1 or more and less than 3 is denoted as C)	C (A compound having a KD ratio of 0.1 or more and less than 3 is denoted as C)	
CC[C@H](C)[C@@H]1NC(=O)[C@H](CC2CC2)N(C)C(=O)C[C@@H](C(=O)N(C)C)N(C)C(=O)[C@H](C2CCCC2)N(C)C(=O)C2(CCCC2)NC(=O)[C@@H]2C[C@H](C)CN2C(=O)[C@H](CCc2cc(F)c(C(F)(F)F)c(F)c2)NC(=O)CN(C)C(=O)[C@H](Cc2ccc(C(F)(F)F)cc2)N2CC/C=C\C[C@@H](C2=O)N(C)C(=O)CN(C)C1=O [PP1511, (2S,8S,12S,14S,20S,23S,27S,30S,36S,38Z)-20-cyclopentyl-27-(cyclopropylmethyl)-8-[2-[3,5-difluoro-4-(trifluoromethyl)phenyl]ethyl]-N,N,4,12,19,22,26,32,35-nonamethyl-30-[(1S)-1-methylpropyl]-3,6,9,15,18,21,25,28,31,34,42-undecaoxo-2-[[4-(trifluoromethyl)phenyl]methyl]spiro[1,4,7,10,16,19,22,26,29,32,35-undecazatricyclo[34.5.1.0^10,14]dotetracont-38-ene-17,1′-cyclopentane]-23-carboxamide]				Kd [1, 4]: 0.099 nM; NRAS/KRAS (ratio of KD value for NRAS to KD value for KRAS) ([2]; KD ratio class): AA (a compound having 20 or more is denoted as AA); HRAS/KRAS (ratio of KD value for HRAS to KD value for KRAS) ([3]; KD ratio class): A (a compound having 10 or more and less than 20 is denoted as A)
CCC[C@H]1C(=O)N[C@@H]([C@@H](C)CC)C(=O)N(C)CC(=O)N(C)[C@H]2C/C=C\CCN(C2=O)[C@@H](Cc2ccc(C(F)(F)F)cc2)C(=O)N(C)CC(=O)N[C@@H](CCc2cc(Cl)c3c(ccn3C)c2)C(=O)N2C[C@H](OCC)C[C@H]2C(=O)NC2(CC(C)(C)C2)C(=O)N(C)[C@@H](C2CCCC2)C(=O)N(C)[C@H](C(=O)N(C)C)CC(=O)N1C [PP2950]	0.76 nM			NRAS/KRAS (ratio of KD value with respect to GDP-bound NRAS wild-type protein to KD value with respect to KRAS) ([2]; SPR KD ratio NRAS/KRAS, class symbols): A (a compound having 10 or more and less than 20 is denoted as A); HRAS/KRAS (ratio of KD value with respect to GDP-bound HRAS wild-type protein to KD value with respect to KRAS) ([3]; SPR KD ratio HRAS/KRAS, class symbols): A (a compound having 10 or more and less than 20 is denoted as A)
CCCN1C(=O)CN(C)C(=O)CN(CC)C(=O)[C@H]([C@@H](C)CC)NC(=O)[C@H](CC(C)C)N(C)C(=O)C[C@@H](C(=O)N2CCOCC2)N(C)C(=O)[C@H](C2CCCC2)N(C)C(=O)C2(CCCC2)NC(=O)[C@@H]2CC(F)(F)CN2C(=O)[C@H](CCc2ccc(C(F)(F)F)c(Cl)c2)NC(=O)CN(C)C(=O)[C@@H]1Cc1ccc(C(F)(F)F)cc1 [PP0399] ([NMeL]I[NEtG][Sar][NPrPhe(4-CF3)][Sar][hPhe(3-Cl-4-CF3)][Pro(4,4-F2)][Ac5c][NMeGly(cPent)][NMeD]-Morpholide; lactam N-11)	0.33 nM	B (a compound having 3 or more and less than 10 is denoted as B)	C (A compound having a KD ratio of 0.1 or more and less than 3 is denoted as C)	
CC[C@H](C)[C@@H]1NC(=O)[C@H](CC(C)C)N(C)C(=O)C[C@@H](C(=O)N2CCOCC2)N(C)C(=O)[C@H](C2CCCC2)N(C)C(=O)C(C)(C)NC(=O)[C@@H]2CCCN2C(=O)[C@H](CCc2cc(F)c(C(F)(F)F)c(F)c2)NC(=O)CN(C)C(=O)[C@H](Cc2ccc(C(F)(F)F)cc2)N2CCCC[C@@H](C2=O)N(C)C(=O)CN(C)C1=O [PP0565]	0.16 nM			NRAS/KRAS (ratio of KD value with respect to NRAS to KD value with respect to KRAS) [2]: C (A compound having a KD ratio of 0.1 or more and less than 3 is denoted as C); HRAS/KRAS (ratio of KD value with respect to HRAS to KD value with respect to KRAS) [3]: B (a compound having 3 or more and less than 10 is denoted as B)
CCO[C@@H]1C[C@H]2C(=O)NC3(CCC3)C(=O)N(C)[C@@H](C3CCCC3)C(=O)N(C)[C@H](C(=O)N3CCOCC3)CC(=O)N(C)[C@@H](Cc3ccc(C)cc3)C(=O)N[C@@H]([C@@H](C)CC)C(=O)N(C)CC(=O)N(C)[C@H]3CCCCCN(C3=O)[C@@H](Cc3ccc(C(F)(F)F)cc3)C(=O)N(C)CC(=O)N[C@@H](CCc3cc(F)c(C(F)(F)F)c(F)c3)C(=O)N2C1 [PP0933]		A (a compound having 10 or more and less than 20 is denoted as A)	B (a compound having 3 or more and less than 10 is denoted as B)	Kd ([1]; SPR, Single Cycle Kinetics): 1.6 nM
CCCOC[C@H]1C(=O)N[C@@H]([C@@H](C)CC)C(=O)N(C)CC(=O)N(C)[C@H]2C/C=C\CCN(C2=O)[C@@H](Cc2ccc(C(F)(F)F)cc2)C(=O)N(C)CC(=O)N[C@@H](CCc2cc(F)c(C(F)(F)F)c(F)c2)C(=O)N2C[C@@H](C)C[C@H]2C(=O)NC2(CC(C)(C)C2)C(=O)N(C)[C@@H](C2CCCC2)C(=O)N(C)[C@H](C(=O)N(C)CC)CC(=O)N1C [PP2043]		A (a compound having 10 or more and less than 20 is denoted as A)	A (a compound having 10 or more and less than 20 is denoted as A)	Kd ([1]; SPR, Single Cycle Kinetics): 0.21 nM
